Common to all, as to type: cell-based
Test [1] deals with BT-474 human mammary gland ductal carcinoma cells. Kind of test: Inhibitory response against BT-474 cells (Cell Titer-Glo). The following applies: 72 hours of culture, inhibition of cell growth. How it is done: (§1) BT-474 human mammary gland ductal carcinoma cells were seeded in a clear polystyrene 96-well microculture plate (Corning® Costar® 96-well flat bottom plate, Cat. #3997) in a total volume of 90 μL/well. After 24 hours of incubation in a humidified incubator at 37° C. with 5% CO2 and 95% air, 10 μL of 10×, serially diluted test agents in growth medium were added to each well (10 pt dose response curve, highest concentration 10 M of test agent). After 72 hours of culture in a humidified incubator at 37° C., in an atmosphere of 5% CO2 and 95% air, the plated cells and Cell Titer-Glo® (Promega G7571) reagents were brought to room temperature to equilibrate for 30 minutes. 100 μL of Cell Titer-Glo® reagent was added to each well. The plate was shaken for two minutes and then left to equilibrate for ten minutes. The media/Cell Titer-Glo® reagent was transferred to a white polystyrene 96-well microculture plate (Corning® Costar® 96-well flat bottom plate, Cat. #3917) before reading luminescence on a Tecan GENios microplate reader.
(§2) Percent inhibition of cell growth was calculated relative to untreated control wells. The IC50 value for the test agents was determined using Prism 6.05 by curve-fitting of the data using the following four parameter-logistic equation:
(§3) [formula] where Top is the maximal % of control absorbance, Bottom is the minimal % of control absorbance at the highest agent concentration, Y is the % of control absorbance, X is the agent concentration, IC50 is the concentration of agent that inhibits cell growth by 50% compared to the control cells, and n is the slope of the curve.

A further test concerns HCC1954 cells. Description: Inhibitory response against HCC1954 cells (method analogous to BT-474). The following applies: Homo sapiens, inhibition of cell growth. Here is the method:
as §1, §2, §3
Inhibitory response of test compounds against HCC1954 cells was determined using a method analogous to that used for BT-474 cells.

Test [2] concerns MES-SA/Dx (multidrug-resistant human uterine sarcoma) cells. Description: Inhibitory response against MES-SA/Dx cells (Cell Titer-Glo). The following applies: 72 hours of culture, inhibition of cell growth. How it is done: MES-SA/Dx (multidrug-resistant human uterine sarcoma) cells are seeded in a clear polystyrene 96-well microculture plate in a total volume of 90 μL/well. After 24 hours of incubation in a humidified incubator at 37° C. with 5% CO2 and 95% air, 10 μL of 10×, serially diluted test agents in growth medium are added to each well. After 72 hours of culture in a humidified incubator at 37° C., in an atmosphere of 5% CO2 and 95% air, the plated cells and Cell Titer-Glo® (Promega G7571) reagents are brought to room temperature to equilibrate for 30 minutes. 100 μL of Cell Titer-Glo® reagent are added to each well. The plate is shaken for two minutes and then left to equilibrate for ten minutes. The media/Cell Titer-Glo® reagent is transferred to a polystyrene 96-well microculture plate before reading luminescence on a Tecan GENios microplate reader.
Percent inhibition of cell growth is calculated relative to untreated control wells. The IC50 value for the test agents is determined using Prism 6.05 by curve-fitting of the data using the following four parameter-logistic equation: […]
On the technique in general: ATP-based viability assays read luminescence as a measure of living cells.

Test [3] deals with MES-SA (human uterine sarcoma) cells. Kind of test: Inhibitory response against MES-SA cells (Cell Titer-Glo). The following applies: 72 hours of culture, inhibition of cell growth. Here is the method:
as §1, with “MES-SA (human uterine sarcoma)” for “BT-474 human mammary gland ductal carcinoma”, “μM” for “M”
Percent inhibition of cell growth is calculated relative to untreated control wells. The IC50 value for the test agents is determined using Prism 6.05 by curve-fitting of the data using the following four parameter-logistic equation:
as §3

The values below come from patent US10722593B2, “Anti-cancer compounds and conjugates thereof” (SIRENAS LLC, priority 2015, dated 2020).

Square brackets hold non-standard residues; d marks the D form. Peptide text beside a SMILES is read from it. * marks the point of attachment. Dolaproine = CO[C@@H]([C@@H]1CCCN1)[C@@H](C)C(=O)O; Dil = CC[C@H](C)[C@H](NC)[C@@H](CC(=O)O)OC; dVal(3-OH) = CC(C)(O)[C@@H](N)C(=O)O; Val(3-OH) = CC(C)(O)[C@H](N)C(=O)O; Doe = c1ccc(C[C@H](N*)c2nccs2)cc1; X1 = C[C@@H](N*)[C@@H](O)c1ccccc1; NMeV = CN[C@H](C(=O)O)C(C)C; NMeAib = CNC(C)(C)C(=O)O; Aib = CC(C)(N)C(=O)O

As to `CC[C@H](C)[C@@H]([C@@H](CC(=O)N1CCC[C@H]1[C@H](OC)[C@@H](C)C(=O)N[C@@H](Cc1ccccc1)c1nccs1)OC)N(C)C(=O)[C@H](CSC)NC(=O)C(C)(C)NC` [Compound 111] (H-[NMeAib]C(Me)[Dil][Dolaproine]-Doe), the IC50 (as a rule, the concentration that gives 50% inhibition) in test [1] amounted to 0.863 nM; in the test on HCC1954 cells it was 0.0656 nM.
Take `CC[C@H](C)[C@@H]([C@@H](CC(=O)N1CCC[C@H]1[C@H](OC)[C@@H](C)C(=O)N[C@@H](Cc1ccccc1)c1nccs1)OC)N(C)C(=O)[C@@H](NC(=O)[C@H](C(C)C)N(C)C)C(C)(C)O` [Compound 101]: the IC50 in test [1] came out at 0.0022 nM; in the test on HCC1954 cells, 0.004 nM; in test [2], 6.37 nM; in test [3] it was 0.035 nM.
For the molecule `CC[C@H](C)[C@@H]([C@@H](CC(=O)N1CCC[C@H]1[C@H](OC)[C@@H](C)C(=O)N[C@@H](Cc1ccccc1)c1nccs1)OC)N(C)C(=O)[C@H](NC(=O)C(C)(C)NC)C(C)(C)O` [Compound 114] (H-[NMeAib][dVal(3-OH)][Dil][Dolaproine]-Doe), the IC50 worked out at 0.0616 nM in test [1] and 0.017 nM with HCC1954 cells.
As for `CC[C@H](C)[C@@H]([C@@H](CC(=O)N1CCC[C@H]1[C@H](OC)[C@@H](C)C(=O)N[C@@H](Cc1ccccc1)c1nccs1)OC)N(C)C(=O)[C@@H](NC(=O)C(C)(C)N)C(C)(C)O` [Compound 113] (H-[Aib][Val(3-OH)][Dil][Dolaproine]-Doe), the figures for the concentration for half-maximal inhibition (IC50) (in test [1]; in the test on HCC1954 cells) were 1.22 nM and 1.24 nM, respectively.
For `CC[C@H](C)[C@@H]([C@@H](CC(=O)N1CCC[C@H]1[C@H](OC)[C@@H](C)C(=O)N[C@@H](Cc1ccccc1)c1nccs1)OC)N(C)C(=O)[C@@H](NC(=O)C(C)(C)NC)C(C)(C)O` [Compound 107] (H-[NMeAib][Val(3-OH)][Dil][Dolaproine]-Doe), the IC50 in test [1] stood at 0.064 nM; in the test on HCC1954 cells, 0.03 nM.
For the molecule `CC[C@H](C)[C@@H]([C@@H](CC(=O)N1CCC[C@H]1[C@H](OC)[C@@H](C)C(=O)N[C@H](C)[C@@H](O)c1ccccc1)OC)N(C)C(=O)[C@@H](NC(=O)[C@H](C(C)C)N(C)C)C(C)(C)O` [Compound 108], the concentration for half-maximal inhibition (IC50) in test [1] came out at 0.14 nM; in the test with HCC1954 cells, 0.46 nM.
Turning to `CC[C@H](C)[C@@H]([C@@H](CC(=O)N1CCC[C@H]1[C@H](OC)[C@@H](C)C(=O)N[C@H](C)[C@@H](O)c1ccccc1)OC)N(C)C(=O)[C@@H](NC(=O)[C@@H](NC)C(C)C)C(C)(C)O` [Compound 109] (H-[NMeV][Val(3-OH)][Dil][Dolaproine]-X1), the figures for the IC50 (in test [1]; in the test on HCC1954 cells; in test [3]) were 26.1 nM, 10.9 nM and 14.9 nM, respectively.
For `CC[C@H](C)[C@@H]([C@@H](CC(=O)N1CCC[C@H]1[C@H](OC)[C@@H](C)C(=O)N[C@H](C)[C@@H](O)c1ccccc1)OC)N(C)C(=O)[C@@H](NC(=O)C(C)(C)NC)C(C)(C)O` [Compound 110] (H-[NMeAib][Val(3-OH)][Dil][Dolaproine]-X1), in that order: 9.09 nM, 2.92 nM and 4.18 nM.
